# Results as given in ChEMBL document CHEMBL1201862, “PubChem BioAssay data set” (2004).
#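 Cultured in 96-well plates, cells were exposed to test compound for 48 hours across five concentrations. Here, GI50 denotes the concentration required for 50% inhibition of growth.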 Active and inactive are the calls of the source. Rule as the data show it: active = GI50 up to about 1.1 µM and inactive = higher.
# What was measured:
# Experiment in all cases: NCI tumour cell line growth inhibition, 48 h
# SNB-78 = system: SNB-78
# SNB-19 = system: SNB-19
# SN12C = system: SN12C
# HCC 2998 = system: HCC 2998
# SK-OV-3 = system: SK-OV-3
# SK-MEL-28 = system: SK-MEL-28
# UO-31 = system: UO-31
# UACC-257 = system: UACC-257
# CCRF-CEM = system: CCRF-CEM
# NCI-H522 = system: NCI-H522
# IGROV-1 = system: IGROV-1
# CAKI-1 = system: CAKI-1
# SK-MEL-2 = system: SK-MEL-2
# ACHN = system: ACHN
# K562 = system: K562
# EKVX = system: EKVX
# SF-295 = system: SF-295
# NCI-H23 = system: NCI-H23
# A549 = system: A549
# RXF 393 = system: RXF 393
# RXF 631 = system: RXF 631
# OVCAR-5 = system: OVCAR-5
# TK-10 = system: TK-10
# KM12 = system: KM12
# MOLT-4 = system: MOLT-4
# COLO 205 = system: COLO 205
# KM-20L2 = system: KM-20L2
# LXFL 529 = system: LXFL 529
# DMS-273 = system: DMS-273
# SR = system: SR
# LOX IMVI = system: LOX IMVI
# U-251 = system: U-251
# OVCAR-8 = system: OVCAR-8
# HOP-92 = system: HOP-92
# UACC-62 = system: UACC-62
# HCT-15 = system: HCT-15
# M14 = system: M14
# DMS-114 = system: DMS-114
# A498 = system: A498
# HCT-116 = system: HCT-116
# NCI-H460 = system: NCI-H460
# SW-620 = system: SW-620
# SK-MEL-5 = system: SK-MEL-5
# 786-0 = system: 786-0
# OVCAR-3 = system: OVCAR-3
# HOP-62 = system: HOP-62
# RPMI-8226 = system: RPMI-8226
# SF-539 = system: SF-539
# SNB-75 = system: SNB-75
# NCI-H226 = system: NCI-H226
# Malme-3M = system: Malme-3M
# SF-268 = system: SF-268
# OVCAR-4 = system: OVCAR-4
# HT-29 = system: HT-29
# DLD-1 = system: DLD-1
# HL-60 = system: HL-60
# M19-MEL = system: M19-MEL
# XF498 = system: XF498
# HOP-18 = system: HOP-18
compound,measurement,setting,value
COC(=O)C1=CC(=O)C(C(=O)Nc2ccc(OC)cc2)C(c2ccccc2)O1 (stereo not drawn),GI50,SNB-78,37.9 µM (inactive)
same,GI50,SNB-19,18.1 µM (inactive)
same,GI50,SN12C,47.5 µM (inactive)
same,GI50,HCC 2998,> 53.8 µM (inactive)
same,GI50,SK-OV-3,28.8 µM (inactive)
same,GI50,SK-MEL-28,37.8 µM (inactive)
same,GI50,UO-31,30.5 µM (inactive)
same,GI50,UACC-257,72.8 µM (inactive)
same,GI50,CCRF-CEM,> 77.3 µM (inactive)
same,GI50,NCI-H522,28 µM (inactive)
same,GI50,IGROV-1,20.5 µM (inactive)
same,GI50,CAKI-1,25.2 µM (inactive)
same,GI50,SK-MEL-2,> 81.7 µM (inactive)
same,GI50,ACHN,41 µM (inactive)
same,GI50,K562,> 67.6 µM (inactive)
same,GI50,EKVX,44.1 µM (inactive)
same,GI50,SF-295,24 µM (inactive)
same,GI50,NCI-H23,21.4 µM (inactive)
same,GI50,A549,28.1 µM (inactive)
same,GI50,RXF 393,23.5 µM (inactive)
same,GI50,RXF 631,37.2 µM (inactive)
same,GI50,OVCAR-5,> 100 µM (inactive)
same,GI50,TK-10,31.6 µM (inactive)
same,GI50,KM12,> 100 µM (inactive)
same,GI50,MOLT-4,> 74.5 µM (inactive)
same,GI50,COLO 205,> 100 µM (inactive)
same,GI50,KM-20L2,> 78.2 µM (inactive)
same,GI50,LXFL 529,25.9 µM (inactive)
same,GI50,DMS-273,37.5 µM (inactive)
same,GI50,SR,44.5 µM (inactive)
same,GI50,LOX IMVI,45.1 µM (inactive)
same,GI50,U-251,21 µM (inactive)
same,GI50,OVCAR-8,34.6 µM (inactive)
same,GI50,HOP-92,24 µM (inactive)
same,GI50,UACC-62,32.2 µM (inactive)
same,GI50,HCT-15,40.6 µM
same,GI50,M14,33.1 µM (inactive)
same,GI50,DMS-114,29.7 µM (inactive)
same,GI50,A498,29.2 µM (inactive)
same,GI50,HCT-116,28.6 µM (inactive)
same,GI50,NCI-H460,43.9 µM (inactive)
same,GI50,SW-620,40.5 µM (inactive)
same,GI50,SK-MEL-5,25.7 µM (inactive)
same,GI50,786-0,20.7 µM (inactive)
same,GI50,OVCAR-3,22.7 µM (inactive)
same,GI50,HOP-62,24 µM (inactive)
same,GI50,RPMI-8226,54.5 µM (inactive)
same,GI50,SF-539,21.4 µM (inactive)
same,GI50,SNB-75,23.1 µM (inactive)
same,GI50,NCI-H226,21.9 µM (inactive)
same,GI50,Malme-3M,> 53 µM (inactive)
same,GI50,SF-268,17.8 µM (inactive)
same,GI50,OVCAR-4,28.4 µM (inactive)
same,GI50,HT-29,> 66.5 µM (inactive)
same,GI50,DLD-1,> 75.5 µM (inactive)
same,GI50,HL-60,> 84.3 µM (inactive)
CC(=O)O[C@H]1CCC(C)=CCC[C@@]2(C)C(CC[C@@H]2[C@@H](C)/C=C/C(C)C)c2ccc(cc2C(=O)O)C1 (stereo partly drawn),GI50,SNB-78,3.33 µM (inactive)
same,GI50,SNB-19,3.04 µM (inactive)
same,GI50,SK-OV-3,3.6 µM (inactive)
same,GI50,SK-MEL-28,5.05 µM (inactive)
same,GI50,UO-31,2.03 µM (inactive)
same,GI50,UACC-257,4.59 µM (inactive)
same,GI50,CCRF-CEM,3.13 µM (inactive)
same,GI50,NCI-H522,2.49 µM (inactive)
same,GI50,IGROV-1,2.96 µM (inactive)
same,GI50,ACHN,3.6 µM (inactive)
same,GI50,K562,3.21 µM (inactive)
same,GI50,EKVX,11 µM (inactive)
same,GI50,SF-295,2.9 µM (inactive)
same,GI50,NCI-H23,2.63 µM (inactive)
same,GI50,RXF 393,3.11 µM (inactive)
same,GI50,RXF 631,7.4 µM (inactive)
same,GI50,OVCAR-5,3.28 µM (inactive)
same,GI50,TK-10,3.45 µM (inactive)
same,GI50,KM12,2.21 µM (inactive)
same,GI50,MOLT-4,1.92 µM (inactive)
same,GI50,KM-20L2,3.67 µM (inactive)
same,GI50,M19-MEL,4.18 µM (inactive)
same,GI50,DMS-273,3.84 µM (inactive)
same,GI50,SR,2.59 µM (inactive)
same,GI50,U-251,2.54 µM (inactive)
same,GI50,OVCAR-8,4.06 µM (inactive)
same,GI50,HOP-92,2.84 µM (inactive)
same,GI50,UACC-62,1.95 µM (inactive)
same,GI50,M14,5.02 µM (inactive)
same,GI50,DMS-114,4.49 µM (inactive)
same,GI50,A498,6.35 µM (inactive)
same,GI50,HCT-116,2.94 µM (inactive)
same,GI50,NCI-H460,3.12 µM (inactive)
same,GI50,HOP-62,2.45 µM (inactive)
same,GI50,HT-29,3.93 µM (inactive)
same,GI50,HL-60,1.73 µM (inactive)
CCN(CC)CCC1CC/C(=C\c2ccc(OC)cc2)C1=O (stereo not drawn),GI50,SNB-78,81.1 µM (inactive)
same,GI50,SNB-19,> 100 µM (inactive)
same,GI50,SN12C,> 100 µM (inactive)
same,GI50,HCC 2998,> 100 µM (inactive)
same,GI50,SK-MEL-28,74.8 µM (inactive)
same,GI50,UO-31,58.1 µM (inactive)
same,GI50,UACC-257,32 µM (inactive)
same,GI50,CCRF-CEM,> 100 µM (inactive)
same,GI50,NCI-H522,60.7 µM (inactive)
same,GI50,IGROV-1,> 100 µM (inactive)
same,GI50,CAKI-1,> 100 µM (inactive)
same,GI50,SK-MEL-2,> 100 µM (inactive)
same,GI50,ACHN,> 100 µM (inactive)
same,GI50,K562,40 µM (inactive)
same,GI50,EKVX,> 100 µM (inactive)
same,GI50,SF-295,> 100 µM (inactive)
same,GI50,A549,> 100 µM (inactive)
same,GI50,RXF 393,42.3 µM (inactive)
same,GI50,OVCAR-5,> 100 µM (inactive)
same,GI50,TK-10,> 100 µM (inactive)
same,GI50,KM12,> 100 µM (inactive)
same,GI50,MOLT-4,59.6 µM (inactive)
same,GI50,COLO 205,18 µM (inactive)
same,GI50,KM-20L2,30.3 µM (inactive)
same,GI50,M19-MEL,54.8 µM (inactive)
same,GI50,LXFL 529,58.5 µM (inactive)
same,GI50,DMS-273,> 100 µM (inactive)
same,GI50,SR,55.8 µM (inactive)
same,GI50,LOX IMVI,> 100 µM (inactive)
same,GI50,U-251,> 100 µM (inactive)
same,GI50,OVCAR-8,> 100 µM (inactive)
same,GI50,HOP-92,39.5 µM (inactive)
same,GI50,UACC-62,17.5 µM (inactive)
same,GI50,HCT-15,38.7 µM
same,GI50,M14,35.5 µM (inactive)
same,GI50,DMS-114,38.6 µM (inactive)
same,GI50,A498,74.8 µM (inactive)
same,GI50,HCT-116,87.9 µM (inactive)
same,GI50,SW-620,> 100 µM (inactive)
same,GI50,SK-MEL-5,23.6 µM (inactive)
same,GI50,786-0,> 100 µM (inactive)
same,GI50,OVCAR-3,> 100 µM (inactive)
same,GI50,HOP-62,> 100 µM (inactive)
same,GI50,XF498,49.8 µM (inactive)
same,GI50,RPMI-8226,40.9 µM (inactive)
same,GI50,SF-539,> 100 µM (inactive)
same,GI50,SNB-75,> 100 µM (inactive)
same,GI50,NCI-H226,> 100 µM (inactive)
same,GI50,Malme-3M,> 100 µM (inactive)
same,GI50,SF-268,> 100 µM (inactive)
same,GI50,OVCAR-4,> 100 µM (inactive)
same,GI50,HOP-18,> 100 µM (inactive)
same,GI50,HT-29,39.3 µM (inactive)
same,GI50,DLD-1,> 100 µM (inactive)
same,GI50,HL-60,47.8 µM (inactive)
OCCN1CCN(CC/C=C2/c3ccccc3Sc3ccc(Cl)cc32)CC1,GI50,SNB-78,15.8 µM (inactive)
same,GI50,SNB-19,20.7 µM (inactive)
same,GI50,SN12C,13.2 µM (inactive)
same,GI50,HCC 2998,11.3 µM (inactive)
same,GI50,SK-OV-3,15.8 µM (inactive)
same,GI50,SK-MEL-28,1.87 µM (inactive)
same,GI50,UO-31,13.3 µM (inactive)
same,GI50,UACC-257,2.52 µM (inactive)
same,GI50,CCRF-CEM,8.41 µM (inactive)
same,GI50,NCI-H522,16.4 µM (inactive)
same,GI50,IGROV-1,15.2 µM (inactive)
same,GI50,CAKI-1,10.5 µM (inactive)
same,GI50,SK-MEL-2,14.9 µM (inactive)
same,GI50,ACHN,16 µM (inactive)
same,GI50,K562,2.56 µM (inactive)
same,GI50,EKVX,16.8 µM (inactive)
same,GI50,SF-295,18.4 µM (inactive)
same,GI50,NCI-H23,15.7 µM (inactive)
same,GI50,A549,15.6 µM (inactive)
same,GI50,RXF 393,13.1 µM (inactive)
same,GI50,OVCAR-5,17.1 µM (inactive)
same,GI50,TK-10,15.2 µM (inactive)
same,GI50,KM12,9.57 µM (inactive)
same,GI50,MOLT-4,11.4 µM (inactive)
same,GI50,COLO 205,9.73 µM (inactive)
same,GI50,KM-20L2,2.07 µM (inactive)
same,GI50,M19-MEL,1.94 µM (inactive)
same,GI50,LXFL 529,5.74 µM (inactive)
same,GI50,DMS-273,6.05 µM (inactive)
same,GI50,SR,12.1 µM (inactive)
same,GI50,LOX IMVI,8.81 µM (inactive)
same,GI50,U-251,12.9 µM (inactive)
same,GI50,HOP-92,8.45 µM (inactive)
same,GI50,UACC-62,2.59 µM (inactive)
same,GI50,HCT-15,13.4 µM
same,GI50,M14,2.3 µM (inactive)
same,GI50,DMS-114,16.4 µM (inactive)
same,GI50,A498,14.5 µM (inactive)
same,GI50,HCT-116,8.47 µM (inactive)
same,GI50,NCI-H460,5.93 µM (inactive)
same,GI50,SW-620,12 µM (inactive)
same,GI50,SK-MEL-5,5.89 µM (inactive)
same,GI50,OVCAR-3,14.7 µM (inactive)
same,GI50,HOP-62,16.1 µM (inactive)
same,GI50,XF498,12.6 µM (inactive)
same,GI50,RPMI-8226,9.82 µM (inactive)
same,GI50,SF-539,12.9 µM (inactive)
same,GI50,SNB-75,3.69 µM (inactive)
same,GI50,NCI-H226,14.6 µM (inactive)
same,GI50,Malme-3M,5.33 µM (inactive)
same,GI50,SF-268,14.6 µM (inactive)
same,GI50,OVCAR-4,17.2 µM (inactive)
same,GI50,HOP-18,1.5 µM (inactive)
same,GI50,HT-29,2.57 µM (inactive)
same,GI50,DLD-1,13.4 µM (inactive)
same,GI50,HL-60,1.76 µM (inactive)
